Experimental data as given in the NIST ThermoML archive (doi:10.1016/j.fluid.2010.10.028).

Experiment: xn = mol fraction of the nth substance listed
Conditions: Liquid, Vibrating tube method

CC(C)=O [acetone] + CCCCCCC
Conditions | mass density [kg/m3]
347.61 K, 99820 kPa, x1 = 0.7024 | 766.18
347.61 K, 104810 kPa, x1 = 0.7024 | 768.98
347.61 K, 109800 kPa, x1 = 0.7024 | 771.73
347.61 K, 114810 kPa, x1 = 0.7024 | 774.41
347.61 K, 119820 kPa, x1 = 0.7024 | 777.02
347.61 K, 124830 kPa, x1 = 0.7024 | 779.56
347.61 K, 129810 kPa, x1 = 0.7024 | 782.01
347.62 K, 1020 kPa, x1 = 0.801 | 689
347.62 K, 1220 kPa, x1 = 0.4 | 705.05
347.62 K, 1220 kPa, x1 = 0.8992 | 705.05
347.62 K, 4860 kPa, x1 = 0.801 | 695.13
347.62 K, 5030 kPa, x1 = 0.4 | 711.05
347.62 K, 5030 kPa, x1 = 0.8992 | 711.05
347.62 K, 9870 kPa, x1 = 0.801 | 702.45
347.62 K, 10010 kPa, x1 = 0.4 | 718.22
347.62 K, 10010 kPa, x1 = 0.8992 | 718.22
347.62 K, 14850 kPa, x1 = 0.801 | 709.08
347.62 K, 15000 kPa, x1 = 0.4 | 724.83
347.62 K, 15000 kPa, x1 = 0.8992 | 724.83
347.62 K, 19850 kPa, x1 = 0.801 | 715.23
347.62 K, 24850 kPa, x1 = 0.801 | 720.94
347.62 K, 29860 kPa, x1 = 0.801 | 726.31
347.62 K, 34950 kPa, x1 = 0.4 | 746.98
347.62 K, 34950 kPa, x1 = 0.8992 | 746.98
347.62 K, 39850 kPa, x1 = 0.801 | 736.15
347.62 K, 39940 kPa, x1 = 0.4 | 751.76
347.62 K, 39940 kPa, x1 = 0.8992 | 751.76
347.62 K, 44930 kPa, x1 = 0.4 | 756.3
347.62 K, 44930 kPa, x1 = 0.8992 | 756.3
347.62 K, 49910 kPa, x1 = 0.4 | 760.61
347.62 K, 49910 kPa, x1 = 0.8992 | 760.61
347.62 K, 54840 kPa, x1 = 0.801 | 749.08
347.62 K, 54890 kPa, x1 = 0.4 | 764.72
347.62 K, 54890 kPa, x1 = 0.8992 | 764.72
347.62 K, 59880 kPa, x1 = 0.4 | 768.69
347.62 K, 59880 kPa, x1 = 0.8992 | 768.69
347.62 K, 64870 kPa, x1 = 0.4 | 772.47
347.62 K, 64870 kPa, x1 = 0.8992 | 772.47
347.62 K, 69850 kPa, x1 = 0.4 | 776.15
347.62 K, 69850 kPa, x1 = 0.8992 | 776.15
347.62 K, 74830 kPa, x1 = 0.4 | 779.64
347.62 K, 74830 kPa, x1 = 0.8992 | 779.64
347.62 K, 74890 kPa, x1 = 0.801 | 763.9
347.62 K, 79820 kPa, x1 = 0.4 | 783.06
347.62 K, 79820 kPa, x1 = 0.8992 | 783.06
347.62 K, 79870 kPa, x1 = 0.801 | 767.26
347.62 K, 84800 kPa, x1 = 0.4 | 786.42
347.62 K, 84800 kPa, x1 = 0.8992 | 786.42
347.62 K, 89780 kPa, x1 = 0.4 | 789.6
347.62 K, 89780 kPa, x1 = 0.8992 | 789.6
347.62 K, 94760 kPa, x1 = 0.4 | 792.68
347.62 K, 94760 kPa, x1 = 0.8992 | 792.68
347.62 K, 99740 kPa, x1 = 0.4 | 795.68
347.62 K, 99740 kPa, x1 = 0.8992 | 795.68
347.62 K, 99810 kPa, x1 = 0.801 | 779.62
347.62 K, 104710 kPa, x1 = 0.4 | 798.57
347.62 K, 104710 kPa, x1 = 0.8992 | 798.57
347.62 K, 109700 kPa, x1 = 0.4 | 801.41
347.62 K, 109700 kPa, x1 = 0.8992 | 801.41
347.62 K, 114660 kPa, x1 = 0.4 | 804.17
347.62 K, 114660 kPa, x1 = 0.8992 | 804.17
347.62 K, 119630 kPa, x1 = 0.4 | 806.86
347.62 K, 119630 kPa, x1 = 0.8992 | 806.86
347.62 K, 124610 kPa, x1 = 0.4 | 809.5
347.62 K, 124610 kPa, x1 = 0.8992 | 809.5
347.62 K, 124830 kPa, x1 = 0.801 | 793.29
347.62 K, 129570 kPa, x1 = 0.4 | 812.05
347.62 K, 129570 kPa, x1 = 0.8992 | 812.05
347.63 K, 1030 kPa, x1 = 0.492 | 657.71
347.63 K, 1030 kPa, x1 = 0.611 | 666.96
347.63 K, 4850 kPa, x1 = 0.492 | 663.76
347.63 K, 4870 kPa, x1 = 0.611 | 673.09
347.63 K, 9850 kPa, x1 = 0.492 | 670.93
347.63 K, 9870 kPa, x1 = 0.611 | 680.36
347.63 K, 14850 kPa, x1 = 0.492 | 677.45
347.63 K, 19850 kPa, x1 = 0.492 | 683.45
347.63 K, 19980 kPa, x1 = 0.4 | 730.92
347.63 K, 19980 kPa, x1 = 0.8992 | 730.92
347.63 K, 24860 kPa, x1 = 0.492 | 689
347.63 K, 24960 kPa, x1 = 0.4 | 736.6
347.63 K, 24960 kPa, x1 = 0.8992 | 736.6
347.63 K, 29860 kPa, x1 = 0.492 | 694.2
347.63 K, 29960 kPa, x1 = 0.4 | 741.95
347.63 K, 29960 kPa, x1 = 0.8992 | 741.95
347.63 K, 34850 kPa, x1 = 0.492 | 699.05
347.63 K, 34850 kPa, x1 = 0.801 | 731.37
347.63 K, 39860 kPa, x1 = 0.492 | 703.65
347.63 K, 44850 kPa, x1 = 0.801 | 740.65
347.63 K, 44870 kPa, x1 = 0.492 | 708.02
347.63 K, 49830 kPa, x1 = 0.492 | 712.11
347.63 K, 49850 kPa, x1 = 0.801 | 744.95
